Columns and labels:
Assay type in all cases: functional
ACHN = test: Anticancer activity against human ACHN cells assessed cell growth at 10 uM after 48 hrs by sulforhodamine B assay relative to control
CAKI-1 = test: Anticancer activity against human Caki1 cells assessed cell growth at 10 uM after 48 hrs by sulforhodamine B assay relative to control
RXF 393 = test: Anticancer activity against human RXF393 cells assessed cell growth at 10 uM after 48 hrs by sulforhodamine B assay relative to control
SN12C = test: Anticancer activity against human SN12C cells assessed cell growth at 10 uM after 48 hrs by sulforhodamine B assay relative to control
TK-10 = test: Anticancer activity against human TK10 cells assessed cell growth at 10 uM after 48 hrs by sulforhodamine B assay relative to control
UO-31 = test: Anticancer activity against human UO31 cells assessed cell growth at 10 uM after 48 hrs by sulforhodamine B assay relative to control
PC-3 = test: Anticancer activity against human PC3 cells assessed cell growth at 10 uM after 48 hrs by sulforhodamine B assay relative to control
DU-145 = test: Anticancer activity against human DU145 cells assessed cell growth at 10 uM after 48 hrs by sulforhodamine B assay relative to control
MCF7 = test: Anticancer activity against human MCF7 cells assessed cell growth at 10 uM after 48 hrs by sulforhodamine B assay relative to control
MDA-MB-231 = test: Anticancer activity against human MDA-MB-231 cells assessed cell growth at 10 uM after 48 hrs by sulforhodamine B assay relative to control
MDA-MB-435 = test: Anticancer activity against human MDA-MB-435 cells assessed cell growth at 10 uM after 48 hrs by sulforhodamine B assay relative to control
BT-549 = test: Anticancer activity against human BT549 cells assessed cell growth at 10 uM after 48 hrs by sulforhodamine B assay relative to control
T47D = test: Anticancer activity against human T47D cells assessed cell growth at 10 uM after 48 hrs by sulforhodamine B assay relative to control
MDA-MB-468 = test: Anticancer activity against human MDA-MB-468 cells assessed cell growth at 10 uM after 48 hrs by sulforhodamine B assay relative to control
[1] = Anticancer activity against human RPMI8266 cells assessed cell growth at 10 uM after 48 hrs by sulforhodamine B assay relative to control
HOP-62 = test: Anticancer activity against human HOP62 cells assessed cell growth at 10 uM after 48 hrs by sulforhodamine B assay relative to control
HOP-92 = test: Anticancer activity against human HOP92 cells assessed cell growth at 10 uM after 48 hrs by sulforhodamine B assay relative to control
NCI-H23 = test: Anticancer activity against human NCI-H23 cells assessed cell growth at 10 uM after 48 hrs by sulforhodamine B assay relative to control
NCI-H322M = test: Anticancer activity against human NCI-H322M cells assessed cell growth at 10 uM after 48 hrs by sulforhodamine B assay relative to control
NCI-H460 = test: Anticancer activity against human NCI-H460 cells assessed cell growth at 10 uM after 48 hrs by sulforhodamine B assay relative to control
NCI-H522 = test: Anticancer activity against human NCI-H522 cells assessed cell growth at 10 uM after 48 hrs by sulforhodamine B assay relative to control
HCT-116 = test: Anticancer activity against human HCT116 cells assessed cell growth at 10 uM after 48 hrs by sulforhodamine B assay relative to control
HCT-15 = test: Anticancer activity against human HCT15 cells assessed cell growth at 10 uM after 48 hrs by sulforhodamine B assay relative to control
KM12 = test: Anticancer activity against human KM12 cells assessed cell growth at 10 uM after 48 hrs by sulforhodamine B assay relative to control
SW-620 = test: Anticancer activity against human SW620 cells assessed cell growth at 10 uM after 48 hrs by sulforhodamine B assay relative to control
SF-268 = test: Anticancer activity against human SF268 cells assessed cell growth at 10 uM after 48 hrs by sulforhodamine B assay relative to control
SF-295 = test: Anticancer activity against human SF295 cells assessed cell growth at 10 uM after 48 hrs by sulforhodamine B assay relative to control
SF-539 = test: Anticancer activity against human SF539 cells assessed cell growth at 10 uM after 48 hrs by sulforhodamine B assay relative to control
SNB-19 = test: Anticancer activity against human SNB19 cells assessed cell growth at 10 uM after 48 hrs by sulforhodamine B assay relative to control
SNB-75 = test: Anticancer activity against human SNB75 cells assessed cell growth at 10 uM after 48 hrs by sulforhodamine B assay relative to control
U-251 = test: Anticancer activity against human U251 cells assessed cell growth at 10 uM after 48 hrs by sulforhodamine B assay relative to control
LOX IMVI = test: Anticancer activity against human LOXIMVI cells assessed cell growth at 10 uM after 48 hrs by sulforhodamine B assay relative to control
Malme-3M = test: Anticancer activity against human MALME-3M cells assessed cell growth at 10 uM after 48 hrs by sulforhodamine B assay relative to control
SK-MEL-2 = test: Anticancer activity against human SK-MEL-2 cells assessed cell growth at 10 uM after 48 hrs by sulforhodamine B assay relative to control
SK-MEL-28 = test: Anticancer activity against human SK-MEL-28 cells assessed cell growth at 10 uM after 48 hrs by sulforhodamine B assay relative to control
UACC-257 = test: Anticancer activity against human UACC257 cells assessed cell growth at 10 uM after 48 hrs by sulforhodamine B assay relative to control
IGROV-1 = test: Anticancer activity against human IGROV1 cells assessed cell growth at 10 uM after 48 hrs by sulforhodamine B assay relative to control
OVCAR-4 = test: Anticancer activity against human OVCAR4 cells assessed cell growth at 10 uM after 48 hrs by sulforhodamine B assay relative to control
OVCAR-5 = test: Anticancer activity against human OVCAR5 cells assessed cell growth at 10 uM after 48 hrs by sulforhodamine B assay relative to control
OVCAR-8 = test: Anticancer activity against human OVCAR8 cells assessed cell growth at 10 uM after 48 hrs by sulforhodamine B assay relative to control
SK-OV-3 = test: Anticancer activity against human SKOV3 cells assessed cell growth at 10 uM after 48 hrs by sulforhodamine B assay relative to control
HL-60(TB) = test: Anticancer activity against human HL-60(TB) cells assessed cell growth at 10 uM after 48 hrs by sulforhodamine B assay relative to control
CCRF-CEM = test: Anticancer activity against human CCRF-CEM cells assessed cell growth at 10 uM after 48 hrs by sulforhodamine B assay relative to control

CCCCCCCC[n+]1ccn(C)c1.[Cl-]
Activity (ACHN): 75.93%
Activity (CAKI-1): 66.65%
Activity (RXF 393): 78.03%
Activity (SN12C): 93.85%
Activity (TK-10): 77.56%
Activity (UO-31): 85.09%
Activity (PC-3): 97.45%
Activity (DU-145): 99.82%
Activity (MCF7): 79.81%
Activity (MDA-MB-231): 74.81%
Activity (MDA-MB-435): 70.46%
Activity (BT-549): 81.23%
Activity (T47D): 87.08%
Activity (MDA-MB-468): 46.81%
Activity [1]: 122.18%
Activity (HOP-62): 90.78%
Activity (HOP-92): 106.43%
Activity (NCI-H23): 62.26%
Activity (NCI-H322M): 95.53%
Activity (NCI-H460): 101.53%
Activity (NCI-H522): 72.78%
Activity (HCT-116): 62.3%
Activity (HCT-15): 111.4%
Activity (KM12): 81.14%
Activity (SW-620): 89.37%
Activity (SF-268): 95.77%
Activity (SF-295): 101.39%
Activity (SF-539): 71.01%
Activity (SNB-19): 91.91%
Activity (SNB-75): 83.9%
Activity (U-251): 79.77%
Activity (LOX IMVI): 71.93%
Activity (Malme-3M): 80.97%
Activity (SK-MEL-2): 85.11%
Activity (SK-MEL-28): 120.13%
Activity (UACC-257): 83.24%
Activity (IGROV-1): 96.33%
Activity (OVCAR-4): 61.98%
Activity (OVCAR-5): 101.85%
Activity (OVCAR-8): 77.68%
Activity (SK-OV-3): 98.42%
Activity (HL-60(TB)): 94.06%
Activity (CCRF-CEM): 121.49%

CCCCCCCC[n+]1ccn(C)c1.F[P-](F)(F)(F)(F)F
Activity (ACHN): 67.29%
Activity (CAKI-1): 56.66%
Activity (RXF 393): 83.22%
Activity (SN12C): 86.03%
Activity (TK-10): 57.87%
Activity (UO-31): 77.77%
Activity (PC-3): 74.78%
Activity (DU-145): 99.58%
Activity (MCF7): 69.15%
Activity (MDA-MB-231): 65.53%
Activity (MDA-MB-435): 52.08%
Activity (BT-549): 60.35%
Activity (T47D): 73.53%
Activity (MDA-MB-468): 21%
Activity [1]: 135.51%
Activity (HOP-62): 79.02%
Activity (HOP-92): 96.72%
Activity (NCI-H23): 51.9%
Activity (NCI-H322M): 89.47%
Activity (NCI-H460): 92.86%
Activity (NCI-H522): 65.58%
Activity (HCT-116): 56.26%
Activity (HCT-15): 97.27%
Activity (KM12): 71.32%
Activity (SW-620): 73.41%
Activity (SF-268): 96.73%
Activity (SF-295): 79.54%
Activity (SF-539): 67.02%
Activity (SNB-19): 82.83%
Activity (SNB-75): 70.71%
Activity (U-251): 70.41%
Activity (LOX IMVI): 70.03%
Activity (Malme-3M): 62.25%
Activity (SK-MEL-2): 83.03%
Activity (SK-MEL-28): 95.95%
Activity (UACC-257): 72.49%
Activity (IGROV-1): 76.25%
Activity (OVCAR-4): 52.01%
Activity (OVCAR-5): 96.06%
Activity (OVCAR-8): 78.96%
Activity (SK-OV-3): 69.29%
Activity (HL-60(TB)): 91.74%
Activity (CCRF-CEM): 84.88%

CCCCCCCC[n+]1ccn(C)c1.F[B-](F)(F)F
Activity (ACHN): 70.72%
Activity (CAKI-1): 60.04%
Activity (RXF 393): 104.98%
Activity (SN12C): 97.45%
Activity (TK-10): 76.77%
Activity (UO-31): 76.51%
Activity (PC-3): 83.86%
Activity (DU-145): 95.55%
Activity (MCF7): 76.87%
Activity (MDA-MB-231): 78.93%
Activity (MDA-MB-435): 59.67%
Activity (BT-549): 64.81%
Activity (T47D): 75.19%
Activity (MDA-MB-468): 39.75%
Activity [1]: 64.64%
Activity (HOP-62): 91.23%
Activity (HOP-92): 87.53%
Activity (NCI-H23): 59.28%
Activity (NCI-H322M): 101.83%
Activity (NCI-H460): 98.66%
Activity (NCI-H522): 69.23%
Activity (HCT-116): 66.53%
Activity (HCT-15): 97.47%
Activity (KM12): 79.57%
Activity (SW-620): 80.56%
Activity (SF-268): 103.08%
Activity (SF-295): 78.23%
Activity (SF-539): 74.98%
Activity (SNB-19): 81.8%
Activity (SNB-75): 84.84%
Activity (U-251): 73.04%
Activity (LOX IMVI): 72.64%
Activity (Malme-3M): 80.13%
Activity (SK-MEL-2): 90.35%
Activity (SK-MEL-28): 105.03%
Activity (UACC-257): 87.94%
Activity (IGROV-1): 85.75%
Activity (OVCAR-4): 66.15%
Activity (OVCAR-5): 92.12%
Activity (OVCAR-8): 73.05%
Activity (SK-OV-3): 81.16%
Activity (HL-60(TB)): 64.63%
Activity (CCRF-CEM): 45.61%

CCCCCCCCOS(=O)(=O)[O-].CCCCCCCC[n+]1ccn(C)c1
Activity (ACHN): 67.5%
Activity (CAKI-1): 56.81%
Activity (RXF 393): 84%
Activity (SN12C): 92.64%
Activity (TK-10): 68.07%
Activity (UO-31): 71.08%
Activity (PC-3): 94.3%
Activity (DU-145): 96.94%
Activity (MCF7): 75.57%
Activity (MDA-MB-231): 66.28%
Activity (MDA-MB-435): 55.5%
Activity (BT-549): 67.86%
Activity (T47D): 80.27%
Activity (MDA-MB-468): 38.15%
Activity [1]: 116.11%
Activity (HOP-62): 90.54%
Activity (HOP-92): 107.58%
Activity (NCI-H23): 56.59%
Activity (NCI-H322M): 89.12%
Activity (NCI-H460): 95.98%
Activity (NCI-H522): 57.44%
Activity (HCT-116): 55.91%
Activity (HCT-15): 107.62%
Activity (KM12): 76.23%
Activity (SW-620): 86.25%
Activity (SF-268): 92.2%
Activity (SF-295): 80.68%
Activity (SF-539): 65.31%
Activity (SNB-19): 82.22%
Activity (SNB-75): 84.66%
Activity (U-251): 71.96%
Activity (LOX IMVI): 68.86%
Activity (Malme-3M): 80.15%
Activity (SK-MEL-2): 83.39%
Activity (SK-MEL-28): 112.15%
Activity (UACC-257): 78.7%
Activity (IGROV-1): 72.84%
Activity (OVCAR-4): 60.6%
Activity (OVCAR-5): 98.17%
Activity (OVCAR-8): 76.03%
Activity (SK-OV-3): 82.36%
Activity (HL-60(TB)): 82.07%
Activity (CCRF-CEM): 97.94%
